# Key:
# HEp-2 [1] = experiment: Antiviral activity against respiratory syncytial virus in HEp-2 human […] epithelial carcinoma cell line; format: functional, cell-based
# HEp-2 [2] = experiment: Cytotoxic activity against uninfected HEp-2 human […] epithelial carcinoma cell line; format: functional
# [3] = Therapeutic index expressed as the ratio between CC50 and EC50; format: cell-based; conditions: human, HEp-2 cells; read-out: Therapeutic index
EC50 (HEp-2 [1]),Compound,CC50 (HEp-2 [2]),selectivity ratio [3]
1490 nM,CS(=O)(=O)CCCn1c(Cn2c(O)nc3ccccc32)nc2ccccc21,216000 nM,144
5 nM,C=C(C)n1c(=O)n(Cc2nc3ccccc3n2CCC(C)=O)c2ccccc21,245000 nM,48900
229 nM,CCn1c(=O)n(Cc2nc3ccccc3n2CCO)c2ccccc21,64100 nM,279
5 nM,C=C(C)n1c(=O)n(Cc2nc3ccccc3n2CCCC#N)c2ccccc21,–,–
8 nM,CC(C)n1c(=O)n(Cc2nc3ccccc3n2CCC#N)c2ccccc21,73500 nM,9190
10 nM,CCn1c(=O)n(Cc2nc3ccccc3n2CCCO)c2ccccc21,179000 nM,17900
14 nM,CCn1c(=O)n(Cc2nc3ccccc3n2CCCCO)c2ccccc21,154000 nM,11000
57 nM,CC(C)CCn1c(Cn2c(O)nc3ccccc32)nc2ccccc21,61100 nM,1070
71 nM,CS(=O)(=O)CCCn1c(Cn2c(=O)n(CCCCC#N)c3ccccc32)nc2ccccc21,> 214000 nM,> 3020
30 nM,C=C(C)n1c(=O)n(Cc2nc3ccccc3n2CCCS(C)(=O)=O)c2ccccc21,123000 nM,4110
11 nM,CCn1c(=O)n(Cc2nc3ccccc3n2CCC(C)C)c2ccccc21,18600 nM,1690
28 nM,C=C(C)n1c(=O)n(Cc2nc3ccccc3n2CCC(C)O)c2ccccc21 (stereo not given),172000 nM,6130
298 nM,CCOC(=O)n1c(=O)n(Cc2nc3ccccc3n2CCC(C)C)c2ccccc21,57700 nM,193
27 nM,C=C(C)n1c(=O)n(Cc2nc3ccccc3n2CCCCC#N)c2ccccc21,193000 nM,7140
65 nM,CC(C)CCn1c(Cn2c(=O)n(S(=O)(=O)C(C)C)c3ccccc32)nc2ccccc21,16900 nM,260
7 nM,CC(C)CCn1c(Cn2c(=O)n(S(C)(=O)=O)c3ccccc32)nc2ccccc21,16300 nM,2330

EC50 (HEp-2 [1]),Compound,CC50 (HEp-2 [2]),selectivity ratio [3]
28 nM,CC(C)CCn1c(Cn2c(=O)n(CC#N)c3ccccc32)nc2ccccc21,46800 nM,1670
13 nM,C=C(C)n1c(=O)n(Cc2nc3ccccc3n2CCCCCC#N)c2ccccc21,12300 nM,946
99 nM,N#CCCn1c(Cn2c(O)nc3ccccc32)nc2ccccc21,> 310000 nM,> 3130
15 nM,C=C(C)n1c(=O)n(Cc2nc3ccccc3n2CCC#N)c2ccccc21,79600 nM,5310
710 nM,CC(=O)n1c(=O)n(Cc2nc3ccccc3n2CCC(C)C)c2ccccc21,116000 nM,162
16 nM,C=CCn1c(=O)n(Cc2nc3ccccc3n2CCC(C)C)c2ccccc21,12800 nM,800
4 nM,C=C(C)n1c(=O)n(Cc2nc3ccccc3n2CCCCO)c2ccccc21,171000 nM,42700
173 nM,OCCCCn1c(Cn2c(O)nc3ccccc32)nc2ccccc21,> 168000 nM,> 971
11 nM,CC(C)n1c(=O)n(Cc2nc3ccccc3n2CCCCO)c2ccccc21,68300 nM,6210
114 nM,C=C(C)n1c(=O)n(Cc2nc3ccccc3n2CCCCCCO)c2ccccc21,> 247000 nM,> 2170
62 nM,CC(C)CCn1c(Cn2c(=O)n(S(=O)(=O)N(C)C)c3ccccc32)nc2ccccc21,27100 nM,437
191 nM,CC(=O)CCn1c(Cn2c(O)nc3ccccc32)nc2ccccc21,299000 nM,1560
92 nM,CS(=O)(=O)CCCn1c(Cn2c(=O)n(CCCCO)c3ccccc32)nc2ccccc21,> 229000 nM,> 2490
416 nM,CC(O)CCn1c(Cn2c(O)nc3ccccc32)nc2ccccc21 (stereo not given),> 262000 nM,> 629
4 nM,C=C(C)n1c(=O)n(Cc2nc3ccccc3n2CCC(C)C)c2ccccc21,24700 nM,6180

# Continued, compound first:
Compound,EC50 (HEp-2 [1]),CC50 (HEp-2 [2]),selectivity ratio [3]
CC(C)CCn1c(Cn2c(=O)n(CCCCCC#N)c3ccccc32)nc2ccccc21,25 nM,13400 nM,536
CC(C)n1c(=O)n(Cc2nc3ccccc3n2CCCCCCC#N)c2ccccc21,5 nM,> 189000 nM,> 37800
CC(C)CCn1c(Cn2c(=O)n(Cc3ccc(C(=O)N(C)C)cc3)c3ccccc32)nc2ccccc21,21 nM,26600 nM,1270
CCNC(=O)n1c(=O)n(Cc2nc3ccccc3n2CCC(C)C)c2ccccc21,52 nM,18700 nM,359
CC(C)CCn1c(Cn2c(=O)n(Cc3ccc(O)cc3)c3ccccc32)nc2ccccc21,18 nM,59900 nM,3330
CCn1c(=O)n(Cc2nc3ccccc3n2CC(O)c2ccccc2)c2ccccc21 (stereo not given),37 nM,> 241000 nM,> 6500
CC(C)CCn1c(Cn2c(=O)n(C(=O)NCc3ccccc3)c3ccccc32)nc2ccccc21,86 nM,6440 nM,74
CC(C)CCn1c(Cn2c(=O)n(Cc3ccc(C#N)cc3)c3ccccc32)nc2ccccc21,12 nM,5590 nM,465
CC(C)CCn1c(Cn2c(=O)n(CCCC#N)c3ccccc32)nc2ccccc21,40 nM,59600 nM,1490
CCn1c(=O)n(Cc2nc3ccccc3n2CC(=O)c2ccccc2)c2ccccc21,112 nM,27100 nM,241
N#CCCCCn1c(=O)n(Cc2nc3ccccc3n2CCCC#N)c2ccccc21,25 nM,> 242000 nM,> 9090
CC(C)CCn1c(Cn2c(=O)n(Cc3ccc(S(C)(=O)=O)cc3)c3ccccc32)nc2ccccc21,9 nM,7500 nM,833
N#Cc1ccc(Cn2c(=O)n(Cc3nc4ccccc4n3CCCCO)c3ccccc32)cc1,53 nM,39200 nM,739
CC(C)CCn1c(Cn2c(=O)n(Cc3cc(I)c(O)c(I)c3)c3ccccc32)nc2ccccc21,686 nM,> 144000 nM,> 209
CC1(CCn2c(Cn3c(=O)n(Cc4cc(I)c(O)c(I)c4)c4ccccc43)nc3ccccc32)N=N1,38 nM,27100 nM,713
CC(C)CCn1c(Cn2c(=O)n(C(=O)Nc3ccccc3)c3ccccc32)nc2ccccc21,41 nM,21600 nM,526
CC(C)CCn1c(Cn2c(=O)n(Cc3ccc(S(=O)(=O)N(C)C)cc3)c3ccccc32)nc2ccccc21,4 nM,> 153000 nM,> 38200
C=C(C)n1c(=O)n(Cc2nc3ccccc3[nH]2)c2ccccc21,750 nM,28400 nM,38
CC(C)CCn1c(Cn2c(=O)n(CCCCC#N)c3ccccc32)nc2ccccc21,35 nM,15000 nM,428
CC1(CCn2c(Cn3c(=O)n(Cc4ccc(O)cc4)c4ccccc43)nc3ccccc32)N=N1,4 nM,> 220000 nM,> 28000
CC(C)CCn1c(Cn2c(=O)n(C(N)=O)c3ccccc32)nc2ccccc21,50 nM,134000 nM,2670
C=C(C)n1c(=O)n(Cc2nc3ccccc3n2CCCCCCC#N)c2ccccc21,6 nM,36000 nM,> 6000
N#CCCn1c(Cn2c(=O)n(-c3ccccc3)c3ccccc32)nc2ccccc21,5 nM,87000 nM,17400

# Source: ChEMBL document CHEMBL1147583, “Respiratory syncytial virus inhibitors. Part 2: Benzimidazol-2-one derivatives” (Bioorg Med Chem Lett, 2004)
